In a melting point compilation (Tetko et al.):

`CC1CNc2cc(Cl)ccc2O1` (stereo not drawn) showed a melting point of 75 to 77 °C.
`CCOC(=O)CS(N)(=O)=O` gave a melting point of 62 to 64 °C.
Work on `CC1CCC(C(C)C)C(OC(=O)CCl)C1` (stereo not drawn) yielded a melting point of 65 to 66 °C.
Compound `CNC1CCS(=O)(=O)c2ccc(Br)cc21` (stereo not drawn) has a melting point of 108 to 110 °C.
In the case of `Nc1ccc(-c2cncnc2)cc1`, the melting point is reported as 208 to 210 °C.
For `N#Cc1cnn(-c2ccccc2)n1`, the melting point was 90 to 92 °C.
With `O=C(O)CNC(=O)c1ccc2ccccc2c1` the melting point was 171 to 175 °C.
`CC(N)CCc1ccc(O)cc1` (stereo not drawn) showed a melting point of 111 to 113 °C.
`Nc1cc(-c2cccc(Cl)c2)n[nH]1` gave a melting point of 130 to 132 °C.
In the case of `O=C(O)C(NC1CC1)c1cc(Br)cs1` (stereo not drawn), the melting point is reported as 155 to 157 °C.
With `NNC(=O)CCc1ccccc1` the melting point was 99 to 101 °C.
In the case of `CCC1CCc2[nH]c(=O)sc2C1` (stereo not drawn), the melting point is reported as 144 to 146 °C.
In the case of `O=C(O)c1cccn2c(I)cnc12`, the melting point is reported as 237 to 239 °C.
`Cn1ncc2c(=O)[nH]c(Cl)nc21` showed a melting point of 268 to 270 °C.
For `O=C(O)c1ccc(-c2noc(=O)[nH]2)cc1`, the melting point was 354 to 356 °C.
Compound `CS(=O)(=O)Nc1cccc(O)c1` has a melting point of 93 to 95 °C.
`ClCc1cn2cccnc2n1` gave a melting point of 125 to 127 °C.
For `Cc1c(C(=O)O)cnc2c1c(=O)n(C)c(=O)n2C`, the melting point was 279 to 281 °C.
With `Cc1ccc(CCC(=O)O)o1` the melting point was 58 to 60 °C.
Work on `COc1ccc(Br)c(S(=O)(=O)Cl)c1` yielded a melting point of 63 to 65 °C.
Work on `CS(=O)(=O)c1cccc(C(N)c2ccccc2)c1` (stereo not drawn) yielded a melting point of 48 to 50 °C.
Work on `NS(=O)(=O)c1ccc(Cl)nc1Cl` yielded a melting point of 189 to 191 °C.
With `O=Cc1cnn(Cc2ccccc2Cl)c1` the melting point was 54 to 56 °C.
In the case of `COc1ccccc1NC(=O)c1ccccc1NC(=O)CCC(=O)O`, the melting point is reported as 127 to 129 °C.
In the case of `O=C(O)c1cccc(=O)[nH]1`, the melting point is reported as 239 to 241 °C.
With `O=C(O)C1CCN(C(=O)C2(c3ccccc3)CCC2)CC1` the melting point was 146 to 148 °C.
Work on `Cc1nc(-c2cc(C(=O)O)co2)cs1` yielded a melting point of 186 to 188 °C.
For `Cc1nn(C)c2c1N(C(=O)OC(C)(C)C)CC(C)N2` (stereo not drawn), the melting point was 129 to 131 °C.
`Cc1ccc(C(=O)Nc2cccc(C(F)(F)F)c2)cc1O` showed a melting point of 169 to 171 °C.
With `Nc1ccc(C2(c3ccc(N)cc3)CCCCC2)cc1` the melting point was 110 to 112 °C.
In the case of `Cn1c(-c2ccccc2)c(C(=O)CCl)c2ccccc21`, the melting point is reported as 146 to 148 °C.
Work on `O=C(O)CNC(=O)NCc1ccc([N+](=O)[O-])cc1` yielded a melting point of 166 to 168 °C.
In the case of `O=C(O)c1c(F)cc(OC(F)F)cc1F`, the melting point is reported as 106 to 108 °C.
In the case of `CCOC(C)c1nc(CC(=O)O)cs1` (stereo not drawn), the melting point is reported as 91 to 93 °C.
`N#Cc1c(F)cccc1Oc1ccc(N)cc1` showed a melting point of 156 to 158 °C.
`O=C(O)c1nc2[nH]c(-c3ccccc3)cc(=O)n2n1` showed a melting point of 282 to 284 °C.
Compound `COc1cc(C(=O)O)ccc1OCC(=O)NC(C)C` has a melting point of 193 to 195 °C.
`NC1(CO)Cc2ccccc2C1` gave a melting point of 107 to 109 °C.
Work on `O=c1[nH]c(-c2cccnc2)no1` yielded a melting point of 234 to 236 °C.
With `BrCCc1ccc2ccccc2c1` the melting point was 62 to 64 °C.
`CCCCc1ccnc(N)n1` showed a melting point of 99 to 101 °C.
With `O=Cc1cccc(OCC(F)(F)F)c1` the melting point was 29 to 31 °C.
With `CN(CCC#N)c1ccc(C=O)cc1` the melting point was 70 to 74 °C.
Work on `OCCNc1ncccn1` yielded a melting point of 76 to 78 °C.
`CCN(CC)S(=O)(=O)c1ccc(NC)c(N)c1` showed a melting point of 119 to 121 °C.
For `NC(=O)c1c[nH]cn1`, the melting point was 194 to 196 °C.
Compound `Fc1cccc(-n2nnnc2S)c1` has a melting point of 128 to 146 °C.
For `CNC(=O)c1cccc(N)n1`, the melting point was 102 to 104 °C.
With `O=C(O)c1ccc(-c2ccccc2)cc1F` the melting point was 187 to 189 °C.
`Nc1nnc(-c2ccc(Br)c(F)c2)s1` showed a melting point of 219 to 221 °C.
With `CCCS(=O)(=O)Nc1cc(N)c(F)cc1F` the melting point was 95 to 97 °C.
For `COc1ncccc1C(N)=S`, the melting point was 114 to 116 °C.
Compound `O=C(c1cccnc1)c1cc2ccccc2o1` has a melting point of 106 to 108 °C.
In the case of `O=C(CCl)c1cnc(N2CCCCC2)s1`, the melting point is reported as 118 to 120 °C.
`Sc1nc(-c2ccc3c(c2)OCCO3)n[nH]1` gave a melting point of 282 to 284 °C.
Work on `Cc1cc(N)ccc1S(C)(=O)=O` yielded a melting point of 144 to 146 °C.
For `CCN(CC)S(=O)(=O)c1ccc(F)c(C(=O)O)c1`, the melting point was 161 to 163 °C.
`COc1ccccc1CNCCO` gave a melting point of 65 to 67 °C.
With `Cc1cc(=O)[nH]n1C` the melting point was 169 to 171 °C.
For `CCCn1c(=O)n(C)c(=O)c2c(S)nc(C(C)C)nc21`, the melting point was 204 to 206 °C.
`O=S1(=O)Nc2ncnn2-c2ccccc21` showed a melting point of 284 to 286 °C.
With `N#Cc1cc(Br)cc(S(=O)(=O)Cl)c1` the melting point was 74 to 76 °C.
Work on `O=C1NC(=O)C2(CCSC2)N1` (stereo not drawn) yielded a melting point of 243 to 245 °C.
Compound `Fc1ccc(-c2nnc(S)n2CCN2CCOCC2)cc1` has a melting point of 212 to 214 °C.
In the case of `NS(=O)(=O)CCCCl`, the melting point is reported as 63 to 65 °C.
Work on `Fc1ccc(CBr)c(Br)c1` yielded a melting point of 51 to 53 °C.
With `O=C(O)CCNS(=O)(=O)c1ccc2c(c1)OCCCO2` the melting point was 200 to 205 °C.
`O=C(CCl)Nc1cc(C(F)(F)F)ccc1N1CCCC1` showed a melting point of 271 to 272 °C.
In the case of `CS(=O)(=O)c1cccc(Cl)c1C=O`, the melting point is reported as 102 to 104 °C.
For `O=C1CCSc2ccc(Br)cc21`, the melting point was 49 to 51 °C.
Work on `NC(=NO)C(c1ccccc1)c1ccccc1` yielded a melting point of 124 to 126 °C.
Work on `COCCOc1ccc(C#N)cn1` yielded a melting point of 39 to 41 °C.
`CC(C)n1ccc(C(=O)O)n1` showed a melting point of 77 to 79 °C.
Compound `O=C(O)c1csc(C2CC2)n1` has a melting point of 123 to 125 °C.
`Nc1cccc(CS(=O)(=O)Cc2ccccc2)c1` gave a melting point of 120 to 122 °C.
`O=C(O)Cn1c(=O)oc2cc([N+](=O)[O-])ccc21` gave a melting point of 214 to 216 °C.
`Nc1ccccc1CS(=O)(=O)c1ccccc1` showed a melting point of 172 to 174 °C.
With `O=C(c1ccc(F)cc1)c1ccc(C(F)(F)F)cc1` the melting point was 100 to 102 °C.
Work on `O=C(Cc1ccc(Br)cc1)NC(C(=O)O)c1ccccc1` (stereo not drawn) yielded a melting point of 177 to 179 °C.
With `CC(C)(C)c1n[nH]cc1C=O` the melting point was 131 to 133 °C.
`N#Cc1cc(Oc2ccc(CC(=O)O)cc2)ccn1` gave a melting point of 169 to 171 °C.
Work on `COc1ccc(C)cc1-c1csc(N)n1` yielded a melting point of 205 to 207 °C.
Work on `Cn1c(-c2cccc(O)c2)nc2ccccc21` yielded a melting point of 174 to 176 °C.
`O=C(O)c1ccc(NS(=O)(=O)c2ccc(F)c(Cl)c2)cc1` showed a melting point of 240 to 242 °C.
For `CC(C)(C)OC(=O)Nc1cccc(O)c1`, the melting point was 135 to 137 °C.
In the case of `CC(=O)NCc1cccc(C(=O)O)c1`, the melting point is reported as 166 to 168 °C.
`O=C(O)c1ccc(Oc2cc(Cl)ccc2Cl)cc1` gave a melting point of 169 to 171 °C.
`Cc1ccc(-c2nn(-c3ccccc3)cc2C(=O)O)o1` gave a melting point of 160 to 163 °C.
Compound `CC(C)(C)n1ncc(Cl)c(Cl)c1=O` has a melting point of 64 to 66 °C.
Compound `CCc1ccccc1N(C(C)=O)c1nc(CN=C=S)cs1` has a melting point of 96 to 98 °C.
Work on `O=C(O)Cc1csc(-c2cccc(Cl)c2)n1` yielded a melting point of 104 to 109 °C.
For `CCn1c(C)nc2cc(C(=O)NN)ccc21`, the melting point was 183 to 185 °C.
`COc1ccccc1-n1cc(S(N)(=O)=O)cn1` showed a melting point of 143 to 145 °C.
With `CN(CC(=O)O)c1cnccn1` the melting point was 170 to 172 °C.
With `COC(=O)c1ccc(-c2csc(N)n2)cc1` the melting point was 239 to 241 °C.
In the case of `Oc1ccnc2cc(F)c(F)cc12`, the melting point is reported as 298 to 300 °C.
`Brc1nn2cc(-c3cccnc3)nc2s1` gave a melting point of 230 to 232 °C.
`Cc1cc(C)cc(-n2ncc(C(=O)O)n2)c1` gave a melting point of 158 to 160 °C.
Work on `CC(C)c1ccc(CCC(=O)O)cc1` yielded a melting point of 71 to 73 °C.
In the case of `CC(Oc1ccc(F)c(F)c1)C(=O)O` (stereo not drawn), the melting point is reported as 39 to 41 °C.
With `OCc1nnc(-c2ccccc2)o1` the melting point was 129 to 131 °C.
`O=C(O)c1ccc2c(c1)[nH]c(=O)n2C1CCCC1` showed a melting point of 315 to 317 °C.
For `NC(=NO)C1CCCCCC1`, the melting point was 87 to 89 °C.
